Paper PMC5107945, “Abscinazole-E3M, a practical inhibitor of abscisic acid 8′-hydroxylase for improving drought tolerance” (Scientific Reports, 2016)

Legend:
[1] = system: ABA-responsive genes MAPKKK18, RD29A and RD29B; experiment: qRT-PCR of ABA-responsive genes in Arabidopsis seedlings; type: in vivo, Arabidopsis (Columbia accession); details: 10-day-old seedlings, 6 h
Method: Figure 5 Effects of (−)-Abz-E3M on the expression levels of Arabidopsis ABA-responsive genes. Expression of MAPKKK18, RD29A and RD29B after treatment with (−)-Abz-E2B or (−)-Abz-E3M in the absence or presence of 0.25 μM ABA (n = 4, error bar represents s.d.).
Arabidopsis (Columbia accession) were grown for 10 d on agar plates containing 1/2 Murashige and Skoog (MS) and 0.5% sucrose at 22 °C under an 18/6-h light/dark cycle. Seedlings were incubated in the chemical solutions for 6 h. Total RNA from seedlings was isolated using the Plant RNA purification reagent (Thermo Fisher Scientific) according to the manufacturer’s instructions. cDNA was synthesised using the QuantiTec reverse transcription kit (Qiagen). Maize (cv. Gold rush, Sakata Seed Corporation) seedlings were grown in 100-mL pots containing 75 g of moist soil in a glass house. The root parts of the maize seedlings were washed with tap water and dipped in 100 μM (−)-Abz-E3M chemical solution containing 0.05% Tween-20 overnight. Total RNA from maize seedlings was isolated using an RNeasy mini kit (Qiagen) with the ‘on-column’ DNA digestion method. cDNA was synthesised using a High-Capacity cDNA Reverse Transcription Kit (Thermo Fisher Scientific). Real-time PCR using SYBR Premix Ex Taq™ II (Takara) was performed with Step One-Plus (Thermo Fisher Scientific). The primer sets are shown in Supplemental Table S1.

endogenous ABA level = experiment: Endogenous ABA levels in Arabidopsis; type: in vivo; details: Arabidopsis four-week-old plants, 50 μM, overnight
Method: The effects of (-)-Abz-[…] were also determined relative to stomatal apertures. Arabidopsis grown in soil pots underwent moderate drought stress under the optimal growth conditions of 22 °C and 60% relative humidity. Under these growth conditions, the leaf surface temperature of the mock-treated controls was 19.5 °C, which was lower than the surrounding atmospheric temperature because of transpirational water loss (Fig. 6a,b)[30]. […] Finally, we examined the effects of (-)-Abz-[…] on drought tolerance under more practical conditions. Three-week-old Arabidopsis were sprayed with an aqueous solution containing 50 μM (-)-Abz-[…]. Water was not supplied for 12 days, and then the plants were rehydrated. […] We also tested the effects of (-)-Abz-[…] on a monocot crop, maize, to evaluate whether (-)-Abz-[…] affected stomatal movement and enhanced ABA response across plant species. […] Thus, the effects of (-)-Abz-[…] were not restricted to the model plant Arabidopsis. Figure 6 Effects of (-)-Abz-[…] on Arabidopsis drought tolerance. (a,b) Three-week-old plants were treated with 50 μM of (-)-Abz-[…] and incubated overnight at 22 °C with 60% relative humidity. Thermal images of plants were obtained using a thermal imaging camera ([…], Nippon Avionics Co., Ltd.), and the average temperatures on leaf surfaces were determined with NS9200 software (n = 5, error bars represent s.d.). […]

Substance: abscinazole-E3M [(−)-6]
- Expression of ABA-responsive genes MAPKKK18, RD29A and RD29B ([1]; absence of exogenous ABA): did not induce the expression
- Expression of ABA-responsive genes MAPKKK18, RD29A and RD29B ([1]; co-treatment with 0.25 μM ABA): enhanced the expression levels of ABA-responsive genes
- Endogenous ABA content (endogenous ABA level): significantly increase the ABA content
